Test results from patent US8492328B2, “Biomarkers and methods for determining sensitivity to insulin growth factor-1 receptor modulators” (Bristol-Myers Squibb Company, priority 2007, dated 2013).
Entries after “also recorded” stand apart in the source; their conditions may differ.

Legend:
[1] = tested on: Rh1; assay: In vitro cellular proliferation assay ([3H]-thymidine incorporation); type: cell-based, human
Protocol: (§1) All pediatric sarcoma and neuroblastoma cell lines were obtained from Dr. Lee Helman at NIH. All cell lines were grown in RPMI medium supplemented with Glutamax (Gibco/Invitrogen #61870-036), 10% inactivated fetal bovine serum (Gibco/Invitrogen #16140-071), 10 mM Hepes, penicillin and streptomycin.
(§2) Cells were plated at an optimized density for each cell line per well in 96-well microtiter Falcon plates, incubated overnight, and then exposed to a serial dilution of drug. After 72 hours incubation with drug at 37° C., cells were pulsed with 4 μCi/ml [6-3H] thymidine (Amersham Pharmacia Biotech, UK) for 3 hours, trypsinized, harvested onto UniFilter-96, GF/B plates (PerkinElmer, Boston, Mass.) and scintillation was measured on a TopCount NXT (Packard, Conn.). Results were expressed as an IC50, which is the drug concentration required to inhibit cell proliferation by 50% to that of untreated control cells. The mean IC50 and standard deviation (SD) from multiple tests for each cell line were calculated.

[2] = tested on: IMR-32; assay: as above; type: cell-based, human
Protocol: as §1, §2

[3] = tested on: H2595; assay: as above; type: cell-based, human
Protocol: as §1, §2

[4] = tested on: JD; assay: as above; type: cell-based, human
Protocol: as §1, §2

[5] = tested on: SHSY5Y; assay: as above; type: cell-based, human
Protocol: as §1, §2

[6] = tested on: SK-NSH; assay: as above; type: cell-based, human
Protocol: as §1, §2

[7] = tested on: SK-LMS-1; assay: as above; type: cell-based, human
Protocol: as §1, §2

[8] = tested on: HTB-92; assay: as above; type: cell-based, human
Protocol: as §1, §2

[9] = tested on: CTR; assay: as above; type: cell-based, human
Protocol: as §1, §2

[10] = tested on: H2052; assay: as above; type: cell-based, human
Protocol: as §1, §2

[11] = tested on: LG; assay: as above; type: cell-based, human
Protocol: as §1, §2

[12] = tested on: Rh41; assay: as above; type: cell-based, human
Protocol: as §1, §2

[13] = tested on: 5838; assay: as above; type: cell-based, human
Protocol: as §1, §2

[14] = tested on: Rh36; assay: as above; type: cell-based, human
Protocol: as §1, §2

[15] = tested on: VW; assay: as above; type: cell-based, human
Protocol: as §1, §2

[16] = tested on: H513; assay: as above; type: cell-based, human
Protocol: as §1, §2

[17] = tested on: SW-684; assay: as above; type: cell-based, human
Protocol: as §1, §2

[18] = tested on: HT1080/S; assay: as above; type: cell-based, human
Protocol: as §1, §2

[19] = tested on: SK-NAS; assay: as above; type: cell-based, human
Protocol: as §1, §2

[20] = tested on: Rh4; assay: as above; type: cell-based, human
Protocol: as §1, §2

[21] = tested on: TC32; assay: as above; type: cell-based, human
Protocol: as §1, §2

[22] = tested on: KAG; assay: as above; type: cell-based, human
Protocol: as §1, §2

[23] = tested on: LAN-1; assay: as above; type: cell-based, human
Protocol: as §1, §2

[24] = tested on: H211; assay: as above; type: cell-based, human
Protocol: as §1, §2

[25] = tested on: TC71; assay: as above; type: cell-based, human
Protocol: as §1, §2

[26] = tested on: To184.T; assay: as above; type: cell-based, human
Protocol: as §1, §2

[27] = tested on: ME; assay: as above; type: cell-based, human
Protocol: as §1, §2

[28] = tested on: SA-4; assay: as above; type: cell-based, human
Protocol: as §1, §2

[29] = tested on: RDES; assay: as above; type: cell-based, human
Protocol: as §1, §2

[30] = tested on: IGF1R-sal, Colo205, RD1, HT-29, WiDr, GEO, MDA-PCa-2b, MCF-7, H3396, N-87, BT474, and SKBR3 cell lines; assay: Drug combination study (Dilution of Ratios) in cellular proliferation assays; conditions: for Combination Result: in vitro combination with compound 1, multiple cell lines, analyzed by Isobolograms

C[C@@]1(C(=O)Nc2ccc(F)nc2)CCCN1c1nc(Nc2cc(C3CC3)[nH]n2)c2cccn2n1 [Compound 2, (2S)-1-(4-((5-cyclopropyl-1H-pyrazol-3-yl)amino)pyrrolo[2,1-f][1,2,4]triazin-2-yl)-N-(6-fluoro-3-pyridinyl)-2-methyl-2-pyrrolidinecarboxamide]
IC50 ([1]; Homo sapiens, RH-1, 72 h): 26.7 nM | Sensitivity Classification ([1]; Rh1 (Rhabdomyosarcoma)): S (“S” means sensitive) | IC50 ([2]; Homo sapiens, IMR-32, 72 h): 261 nM | Sensitivity Classification ([2]; IMR-32 (Neuroblastoma)): S (“S” means sensitive) | Sensitivity Classification ([3]; H2595 (Melignant Pleural Mesothelioma)): R (“R” means resistant to the corresponding compounds.) | IC50 ([3]; Homo sapiens, NCI-H2595, 72 h): 4480 nM | IC50 ([4]; Homo sapiens, 72 h): 391 nM | sensitivity/resistance classification in words ([4]; JD): resistant | Sensitivity Classification ([4]; JD (Ewing)): R (“R” means resistant to the corresponding compounds.) | IC50 ([5]; Homo sapiens, SH-SY5Y, 72 h): 106 nM | Sensitivity Classification ([5]; SHSY5Y (Neuroblastoma)): S (“S” means sensitive) | IC50 ([6]; Homo sapiens, SK-N-SH, 72 h): 139 nM | Sensitivity Classification ([6]; SK-NSH (Neuroblastoma)): S (“S” means sensitive) | IC50 ([7]; Homo sapiens, SK-LMS-1, 72 h): 687 nM | Sensitivity Classification ([7]; SK-LMS-1 (Leiomyosarcoma)): R (“R” means resistant to the corresponding compounds.) | Sensitivity Classification ([8]; HTB-92 (Liposarcoma)): R (“R” means resistant to the corresponding compounds.) | IC50 ([8]; Homo sapiens, 72 h): 1020 nM | sensitivity/resistance classification in words ([9]; CTR): sensitive | Sensitivity Classification ([9]; CTR (Rhabdomyosarcoma)): S (“S” means sensitive) | IC50 ([9]; Homo sapiens, 72 h): 253 nM | Sensitivity Classification ([10]; H2052 (Melignant Pleural Mesothelioma)): R (“R” means resistant to the corresponding compounds.) | IC50 ([10]; Homo sapiens, NCI-H2052, 72 h): 1050 nM | IC50 ([11]; Homo sapiens, 72 h): 37.5 nM | Sensitivity Classification ([11]; LG (Ewing)): S (“S” means sensitive) | IC50 ([12]; Homo sapiens, Rh41, 72 h): 4.7 nM | Sensitivity Classification ([12]; Rh41 (Rhabdomyosarcoma)): S (“S” means sensitive) | Sensitivity Classification ([13]; 5838 (Ewing)): S (“S” means sensitive) | IC50 ([13]; Homo sapiens, 72 h): 34 nM | IC50 ([14]; Homo sapiens, 72 h): 1430 nM | Sensitivity Classification ([14]; Rh36 (Rhabdomyosarcoma)): R (“R” means resistant to the corresponding compounds.) | IC50 ([15]; Homo sapiens, 72 h): 19 nM | Sensitivity Classification ([15]; VW (Ewing)): S (“S” means sensitive) | Sensitivity Classification ([16]; H513 (Melignant Pleural Mesothelioma)): R (“R” means resistant to the corresponding compounds.) | IC50 ([16]; Homo sapiens, H513, 72 h): 4450 nM | IC50 ([17]; Homo sapiens, SW684, 72 h): 5000 nM | Sensitivity Classification ([17]; SW-684 (Fibrosarcoma)): R (“R” means resistant to the corresponding compounds.) | Sensitivity Classification ([18]; HT1080/S (Fibrosarcoma)): R (“R” means resistant to the corresponding compounds.) | IC50 ([18]; Homo sapiens, HT-1080, 72 h): 531 nM | IC50 ([19]; Homo sapiens, SK-N-AS, 72 h): 497 nM | sensitivity/resistance classification in words ([19]; SK-NAS): resistant | Sensitivity Classification ([19]; SK-NAS (Neuroblastoma)): R (“R” means resistant to the corresponding compounds.) | IC50 ([20]; Homo sapiens, Rh4, 72 h): 4 nM | Sensitivity Classification ([20]; Rh4 (Rhabdomyosarcoma)): S (“S” means sensitive) | IC50 ([21]; Homo sapiens, TC-32, 72 h): 8.4 nM | Sensitivity Classification ([21]; TC32 (Ewing)): S (“S” means sensitive) | IC50 ([22]; Homo sapiens, 72 h): 1660 nM | Sensitivity Classification ([22]; KAG (Ewing)): R (“R” means resistant to the corresponding compounds.) | IC50 ([23]; Homo sapiens, LAN1, 72 h): 40 nM | Sensitivity Classification ([23]; LAN-1 (Neuroblastoma)): S (“S” means sensitive) | Sensitivity Classification ([24]; H211 (Melignant Pleural Mesothelioma)): R (“R” means resistant to the corresponding compounds.) | IC50 ([24]; Homo sapiens, NCI-H211, 72 h): 733 nM | IC50 ([25]; Homo sapiens, TC-71, 72 h): 14.3 nM | Sensitivity Classification ([25]; TC71 (Ewing)): S (“S” means sensitive) | IC50 ([26]; Homo sapiens, 72 h): 470 nM | Sensitivity Classification ([26]; To184.T (Liposarcoma)): R (“R” means resistant to the corresponding compounds.) | IC50 ([27]; Homo sapiens, 72 h): 15 nM | Sensitivity Classification ([27]; ME (Rhabdomyosarcoma)): S (“S” means sensitive) | IC50 ([28]; Homo sapiens, 72 h): 1300 nM | Sensitivity Classification ([28]; SA-4 (Liposarcoma)): R (“R” means resistant to the corresponding compounds.) | IC50 ([29]; Homo sapiens, RD-ES, 72 h): 11.7 nM | Sensitivity Classification ([29]; RDES (Ewing)): S (“S” means sensitive) | Combination result of compound 2 ([30]; compound 2 with HER1/HER2 inhibitors or dasatinib, data not shown): synergy effects

COc1cc([C@@H]2c3cc4c(cc3[C@@H](O[C@@H]3O[C@@H]5CO[C@@H](C)O[C@H]5[C@H](O)[C@H]3O)[C@H]3COC(=O)[C@H]23)OCO4)cc(OC)c1O [VP-16]
Combination Result [30]: Additive

N.N.[Cl][Pt][Cl] [cisplatin]
Combination Result [30]: Additive

C#Cc1cccc(Nc2ncnc3cc(OCCOC)c(OCCOC)cc23)c1 [erlotinib]
Combination Result [30]: synergistic effects; also recorded: Synergy

COc1cc2ncnc(Nc3ccc(F)c(Cl)c3)c2cc1OCCCN1CCOCC1 [gefitnib]
Combination Result [30]: synergistic effects; also recorded: Synergy

CS(=O)(=O)CCNCc1ccc(-c2ccc3ncnc(Nc4ccc(OCc5cccc(F)c5)c(Cl)c4)c3c2)o1 [lapatinib]
Combination Result [30]: synergistic effects; also recorded: Synergy

CC(=O)O[C@H]1C(=O)[C@@]2(C)[C@H]([C@H](OC(=O)c3ccccc3)[C@]3(O)C[C@H](OC(=O)[C@H](O)[C@@H](NC(=O)c4ccccc4)c4ccccc4)C(C)=C1C3(C)C)[C@]1(OC(C)=O)CO[C@@H]1C[C@@H]2O [paclitaxel]
Combination Result [30]: Additive

CC[C@]1(O)C[C@H]2CN(CCc3c([nH]c4ccccc34)[C@@](C(=O)OC)(c3cc4c(cc3OC)N(C=O)[C@H]3[C@@](O)(C(=O)OC)[C@H](OC(C)=O)[C@]5(CC)C=CCN6CC[C@]43[C@@H]65)C2)C1 [vincristine]
Combination Result [30]: Additive
